# Test system: patients suffering from ALS
# [1] = after 12 months of treatment, Munsat functional states
# Experimental: The study was carried out in 289 patients in total aged over 18 years, who have been suffering from ALS for less than 5 years and in whom the vital capacity/theoretical normal vital capacity ratio is greater than or equal to 60% (the vital capacity is a routine conventional measurement of the respiratory function also called lung function test).
# The patients are divided into 2 groups:
# group 1: 145 patients treated with 100 mg/day of riluzole by the oral route and 1000 mg/day of α-tocopherol by the oral route,
# group 2: 144 patients treated with 100 mg/day of riluzole by the oral route and placebo.
# The patients are monitored for a year. The results are measured on functional scales (Munsat's functional states (RIVIERE et al., Arch. Neurol., 55, 526 (1998)), a visual analog scale (VAS) for fatigability (LACOBLEZ et al., The Lancet, 347, 1425 (1996); BENSIMON et al., New England Journal of Medicine, 330, 585 (1994)) and plasma concentration of malondialdehyde, a biochemical marker for oxidative stress (FAVIER, Analysis of free radicals in biological systems, Birk Hauser, Basel/Switzerland, 1995 p. 100-117).
# The Munsat functional state A relates to patients in an average or mild state:
# average state: average deficiency in 3 regions (speech, arm and leg), functionally independent in speech, activities of the upper extremities in daily and ambulatory life,
# mild state: average deficiency in 3 regions or mild to severe deficiency in one region while the other two regions are normal or slightly affected.
# The Munsat functional state B relates to patients in the severe or final state:
# severe state: need for assistance in 2 or 3 regions, dysarthric speech and/or patients requiring assistance to walk and/or requiring assistance for the activities of the upper extremities in daily life,
# final state: nonfunctional use of at least 2 regions and mild or nonfunctional use of the third region.
# The progression of the functional states A and B is determined at the time of inclusion (M0) and after 12 months of treatment (M12).
compound,measurement,setting,value
"Nc1nc2ccc(OC(F)(F)F)cc2s1 [RILUZOLE AND PLACEBO, 2-amino-6-trifluoromethoxybenzothiazole]",Condition after treatment (M12): state A,"Munsat functional state A (average or mild), after 12 months of treatment, riluzole 100 mg/day oral, α-tocopherol 1000 mg/day oral or placebo",56 number of patients
same,Condition on inclusion (M0): state A,"Munsat functional state A (average or mild), baseline at inclusion M0, oral treatment",109 number of patients
same,Condition after treatment (M12): state B,"Munsat functional state B (severe or final), after 12 months of treatment, riluzole 100 mg/day oral, α-tocopherol 1000 mg/day oral or placebo",63 number of patients
same,Condition on inclusion (M0): state B,"Munsat functional state B (severe or final), baseline at inclusion M0, oral treatment",10 number of patients
same,patients who did not exhibit any change,[1],66 patients
same,patients who did not exhibit any change (percent),[1],55.3%
same,patients who exhibited a worsening of the disease,[1],53 patients
same,patients who exhibited a worsening of the disease (percent),[1],44.5%
